Values after ≈ are worked out from the molar mass of the structure shown. Like-named read-outs stand apart in the source and are kept apart here.

Data set [1] relates to A549 cells. Conditions: for anticancer activity / cytotoxicity in words: human lung and colon cancer cell lines (A549 and HCT116); for IC50: read-out: Activity data for compounds: A549.
Data set [2] relates to HCT116 cells. In words: Cell viability assay (Alamar Blue, 72 h), HCT116. Format: cell-based, human. Conditions: for IC50: read-out: Activity data for compounds: HCT116. For orientation: Alamar Blue is a resazurin reagent that responds to reducing activity.
The nature of data set [3]: Mouse liver microsome assay. Format: in vitro ADME. Conditions: mouse liver microsomes, 3 h, percentage remaining. The procedure: A mixture of PBS (pH 7.4), NADPH regenerating system solution A (Corning Life Sciences), and NADPH regenerating system solution B (Corning Life Sciences) was incubated at 37° C. in a shaking incubator for 5 min. Next, compound was added in DMSO (final concentration 50 μM, 0.5% DMSO) before ice-cold mouse liver microsomes (Thermo Fisher, male CD-1 mice, pooled) were added (final protein concentration of 1 mg/mL). An aliquot was immediately removed, quenched with an equal volume of 100 μM internal standard in ice-cold acetonitrile, and centrifuged at 13,000 rcf for 3 min. The supernatant was diluted 1:5 in ddH2O and analyzed by LC-MS. The reactions were incubated at 37° C. in a shaking incubator for 3 h. A second aliquot was removed, quenched and diluted as before and analyzed by LC-MS. The ratio of the areas of analyte:internal standard at 3 hours was compared to the ratio at t0 to determine the percentage of compound remaining. Analysis was performed using a Kinetex® Evo C-18 50 mm column running a gradient from 3%→95% MeCN in water over 9 minutes at 0.4 mL/min. Internal standard=(+)-pancratistatin tetaacetate S4.

The nature of data set [4]: Solubility assay (shake-flask method). Format: physicochemical. Conditions: for solubility at 24 h: thermodynamic from solid, water, stirred 24 hours, shake-flask, LCMS, read-out: aq. Solubility; for increased solubility when compared to natural counterpart: 47 vs narciclasine, 52 vs pancratistatin. On the procedure:
A calibration was made for each compound by diluting a 1 mM DMSO solution to 10, 25, 50, 75, and 100 μM and then measuring their relative UV absorbance by LC-MS using a Kinetex© Evo C-18 50 mm column running a gradient from 5%→90% MeCN in water over 4 minutes at 0.4 mL/min.
The aqueous solubility of each compound was measured using the shake-flask method. 1.0 mg of compound was diluted to 40 mM with water then stirred for 24 hours. Each solution was then filtered, diluted 10-fold, and analyzed by LCMS. The relative UV absorbance of each compound was then compared to its calibration curve to quantify its aqueous solubility.

The mark [5] stands for this setting: A549 human lung cancer cells, 72 h, Alamar Blue.
Where [6] appears, read: HCT116 human colon cancer cells, 72 h, Alamar Blue.
The mark [7] stands for this setting: HCT-116, HCT116 human colon cancer cells, 72 h, Alamar Blue.

`[2H]C1([2H])Oc2cc3c(c(O)c2O1)C(=O)N[C@@H]1C3=C[C@H](O)[C@@H](O)[C@H]1O` [4-d2, (+)-narciclasine 4-d2]: in data set [1], the “anticancer activity / cytotoxicity in words” value was “equipotent activity”. For the same compound, the IC50 in data set [1] (setting [5]) worked out at 0.07 µM; in data set [2] (setting [6]), 0.04 µM. Also, in data set [3], the “greater metabolic stability when compared to narciclasine (4)” value was roughly 30%.
As for `[2H]C1=C2c3cc4c(c(O)c3C(=O)N[C@@]2([2H])[C@]([2H])(O)[C@]([2H])(O)[C@@]1([2H])O)OCO4` [4-d5, (+)-narciclasine 4-d5], in data set [1], the “anticancer activity / cytotoxicity in words” value is reported as “equipotent activity”. Besides, the IC50 turned out to be 0.066 µM in data set [1] (setting [5]) and 0.043 µM in data set [2] (setting [6]). Besides, the “greater metabolic stability when compared to narciclasine (4)” value in data set [3] is given as roughly 30%.
Take `O=C1N[C@H]2[C@H](O)[C@H](O)[C@@H](O)[C@H](O)[C@@H]2c2cc3c(cc21)OCO3` [compound 1, (+)-7-deoxypancratistatin, reference compound]: the IC50 came out at 2.9 µM in data set [1] and 1.5 µM in data set [2] (Homo sapiens, HCT-116, 72 h).
`O=C1N[C@H]2[C@H](O)[C@H](O)[C@@H](O)[C@H](O)[C@@H]2c2cc3c(c(O)c21)OCO3` [compound 2, (+)-pancratistatin, reference compound]: the solubility at 24 h in data set [4] stood at 560 ± 70 µg/mL (≈ 1.72 mM). In addition, the IC50 came to 0.75 µM in data set [1] and 0.44 µM in data set [2] (Homo sapiens, HCT-116, 72 h).
For `O=C1N[C@@H]2C(=C[C@H](O)[C@@H](O)[C@H]2O)c2cc3c(cc21)OCO3` [compound 3, (+)-lycoricidine, reference compound], the IC50 in data set [1] (setting [5]) came out at 0.73 µM; in data set [2] (setting [7]), 0.54 µM.
On to `O=C1N[C@@H]2C(=C[C@H](O)[C@@H](O)[C@H]2O)c2cc3c(c(O)c21)OCO3` [compound 4, (+)-narciclasine, reference compound], for which the IC50 came out at 0.056 µM in data set [1] (setting [5]) and 0.0324 µM in data set [2] (setting [6]).
With `C=CCc1c2c(cc3c1C(=O)N[C@@H]1C3=C[C@H](O)[C@@H](O)[C@H]1O)OCO2` [compound 38, 7-allyl lycoricidine], the IC50 in data set [1] was greater than 100 µM; in data set [2] (Homo sapiens, HCT-116, 72 h), greater than 100 µM.
`O=C1N[C@@H]2C(=C[C@H](O)[C@@H](O)[C@H]2O)c2cc3c(c(C(=O)c4ccccc4)c21)OCO3` [compound 39, 7-oxophenyl lycoricidine]: the IC50 in data set [1] is 44 µM; in data set [2] (Homo sapiens, HCT-116, 72 h) it was 35 µM.
Taken in the same sequence, the figures for `COCc1c2c(cc3c1C(=O)N[C@@H]1C3=C[C@H](O)[C@@H](O)[C@H]1O)OCO2` [compound 40, 7-methoxymethyl lycoricidine] were 48 µM and 50 µM.
On to `O=C1N[C@@H]2C(=C[C@H](O)[C@@H](O)[C@H]2O)c2cc3c(c(CO)c21)OCO3` [compound 41, 7-hydroxymethyl lycoricidine], for which, in data set [1], the “anticancer activity / cytotoxicity in words” value is on record as “less potent” and the IC50 was greater than 100 µM. Besides, the IC50 in data set [2] (Homo sapiens, HCT-116, 72 h) was greater than 100 µM.
On to `COC(=O)c1c2c(cc3c1C(=O)N[C@@H]1C3=C[C@H](O)[C@@H](O)[C@H]1O)OCO2` [compound 42, 7-carboxymethyl lycoricidine], for which the IC50 in data set [1] amounted to 39 µM; in data set [2] (Homo sapiens, HCT-116, 72 h), 29 µM.
Regarding `O=C1N[C@@H]2C(=C[C@H](O)[C@@H](O)[C@H]2O)c2cc3c(c(C(=O)O)c21)OCO3` [compound 43, lycoricidine-7-carboxylic acid], the IC50 in data set [1] (setting [5]) is greater than 100 µM; in data set [2] (Homo sapiens, HCT-116, 72 h), 80 µM.
Turning to `CCOC(=O)Cc1c2c(cc3c1C(=O)N[C@@H]1C3=C[C@H](O)[C@@H](O)[C@H]1O)OCO2` [compound 44, ethyl 2-(7-lycoricidinyl)acetate], the values for the IC50 in data set [1] (setting [5]) and in data set [2] (setting [7]) were 74 µM and 80 µM, respectively.
Turning to `O=C(O)Cc1c2c(cc3c1C(=O)N[C@@H]1C3=C[C@H](O)[C@@H](O)[C@H]1O)OCO2` [compound 45, 2-(7-lycoricidinyl)acetic acid], the IC50 in data set [1] stood at 89 µM; in data set [2] (Homo sapiens, HCT-116, 72 h), 70 µM.
Consider `N#Cc1c2c(cc3c1C(=O)N[C@@H]1C3=C[C@H](O)[C@@H](O)[C@H]1O)OCO2` [compound 46, 7-cyanolycoricidine], for which the IC50 was determined as 1.2 µM in data set [1] and 0.48 µM in data set [2] (Homo sapiens, HCT-116, 72 h). In data set [2], the “activity compared to lycoricidine (3) in HCT116 cells” value is “increased activity when compared to lycoricidine”.
Consider `Nc1c2c(cc3c1C(=O)N[C@@H]1C3=C[C@H](O)[C@@H](O)[C@H]1O)OCO2` [compound 47, 7-aminolycoricidine], for which, in data set [4], the “increased solubility when compared to natural counterpart” value is recorded as 11 fold and the solubility at 24 h was 3740 ± 200 µg/mL (≈ 12.2 mM). For the same compound, the IC50 in data set [1] is 0.38 µM. In addition, the IC50 in data set [2] (Homo sapiens, HCT-116, 72 h) turned out to be 0.39 µM.
On to `CNc1c2c(cc3c1C(=O)N[C@@H]1C3=C[C@H](O)[C@@H](O)[C@H]1O)OCO2` [compound 48, N-methyl-7-aminolycoricidine], for which, in data set [1], the “anticancer activity / cytotoxicity in words” value is recorded as “did not show significant cytotoxicity”. In addition, the results for the IC50 in data set [1] (setting [5]) and in data set [2] (setting [7]) were 28 µM and 12 µM, respectively.
In the case of `CC(=O)Nc1c2c(cc3c1C(=O)N[C@@H]1C3=C[C@H](O)[C@@H](O)[C@H]1O)OCO2` [compound 49, 7-acetamidelycoricidine], the “anticancer activity / cytotoxicity in words” value in data set [1] is recorded as “did not show significant cytotoxicity”. In addition, the IC50 in data set [1] (setting [5]) and in data set [2] (setting [7]) was greater than 100 µM throughout.
As to `O=C1N[C@@H]2C(=C[C@H](O)[C@@H](O)[C@H]2O)c2cc3c(c(N4CCCC4)c21)OCO3` [compound 50], the “anticancer activity / cytotoxicity in words” value in data set [1] is on record as “did not show significant cytotoxicity”. Also, the IC50 in data set [1] (setting [5]) and in data set [2] (setting [7]) was greater than 100 µM each time.
In the case of `O=C1N[C@@H]2C(=C[C@H](O)[C@@H](O)[C@H]2O)c2cc3c(c(N4CCOCC4)c21)OCO3` [compound 51, 7-(4-morpholinyl)lycoricidine], in data set [1], the “anticancer activity / cytotoxicity in words” value was “did not show significant cytotoxicity”. In addition, the values for the IC50 in data set [1] (setting [5]) and in data set [2] (setting [7]) were 39 µM and 33 µM, respectively.
Regarding `Nc1c2c(cc3c1C(=O)N[C@H]1[C@H](O)[C@H](O)[C@@H](O)[C@H](O)[C@H]31)OCO2` [compound 52, 7-aminopancratistatin], in data set [4], the “increased solubility when compared to natural counterpart” value worked out at 6 fold and the solubility at 24 h was 3460 ± 140 µg/mL (≈ 10.7 mM). For the same compound, in data set [1], the IC50 was determined as 9 µM. Further, the IC50 in data set [2] (Homo sapiens, HCT-116, 72 h) was 3.4 µM.
Turning to `COc1cccc2c1C(=O)c1c(O)c3c(c(O)c1C2=O)C[C@@](O)(C(=O)CO)C[C@@H]3O[C@H]1C[C@H](N)[C@H](O)[C@H](C)O1` [doxorubicin, reference compound], the results for the IC50 in data set [1] (setting [5]) and in data set [2] (setting [7]) were 0.22 µM and 0.147 µM, respectively.

Broadly, the solubility is how much of the substance goes into solution per volume.

The values are drawn from patent US12084456B2, “Isocarbostyril alkaloids and functionalization thereof” (The Board of Trustees of the University of Illinois, priority 2018, dated 2024).
